The record followed here is patent US20210070748A1, “INHIBITORS OF BRUTONS TYROSINE KINASE” (Pharmacyclics LLC, priority 2015, published 2021).

What is called IC50 is the concentration that gives 50% inhibition.

What all share (assay type): biochemical
For one assay, the target named is EGFR (Homo sapiens, UniProt P00533). Nature of the assay: Inhibition of a panel of kinases, in vitro HotSpot kinase assay: EGFR. The note with it: D-compounds panel data; 1 μM ATP. Here is the method:
(§1) The degree of inhibition of a panel of kinases is determined using the in vitro HotSpot kinase assay (purified enzymes, ^33P-ATP, an appropriate substrate and 1 μM ATP).

In another assay the target is LCK (Homo sapiens, UniProt P06239). In words: Inhibition of a panel of kinases, in vitro HotSpot kinase assay: LCK. The note with it: D-compounds panel data; 1 μM ATP; read-out: IC50 LCK.
Chain of LCK (P06239 whole entry): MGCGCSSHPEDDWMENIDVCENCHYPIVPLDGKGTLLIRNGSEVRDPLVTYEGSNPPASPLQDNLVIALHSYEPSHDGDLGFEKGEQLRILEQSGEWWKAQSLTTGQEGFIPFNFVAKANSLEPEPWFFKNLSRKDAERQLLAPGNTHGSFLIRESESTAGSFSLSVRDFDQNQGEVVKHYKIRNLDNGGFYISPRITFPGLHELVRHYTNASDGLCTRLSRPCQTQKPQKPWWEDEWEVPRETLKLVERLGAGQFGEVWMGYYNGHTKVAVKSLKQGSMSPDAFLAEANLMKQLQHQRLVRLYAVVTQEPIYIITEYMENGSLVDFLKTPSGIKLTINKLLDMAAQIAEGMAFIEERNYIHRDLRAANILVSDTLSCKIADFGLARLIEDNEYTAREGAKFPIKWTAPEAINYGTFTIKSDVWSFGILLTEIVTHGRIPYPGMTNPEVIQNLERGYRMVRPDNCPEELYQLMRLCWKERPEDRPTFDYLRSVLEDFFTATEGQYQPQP
The target of the next assay is T1, TEC (Homo sapiens, UniProt P42680).
T1 sequence (P42680 1-631): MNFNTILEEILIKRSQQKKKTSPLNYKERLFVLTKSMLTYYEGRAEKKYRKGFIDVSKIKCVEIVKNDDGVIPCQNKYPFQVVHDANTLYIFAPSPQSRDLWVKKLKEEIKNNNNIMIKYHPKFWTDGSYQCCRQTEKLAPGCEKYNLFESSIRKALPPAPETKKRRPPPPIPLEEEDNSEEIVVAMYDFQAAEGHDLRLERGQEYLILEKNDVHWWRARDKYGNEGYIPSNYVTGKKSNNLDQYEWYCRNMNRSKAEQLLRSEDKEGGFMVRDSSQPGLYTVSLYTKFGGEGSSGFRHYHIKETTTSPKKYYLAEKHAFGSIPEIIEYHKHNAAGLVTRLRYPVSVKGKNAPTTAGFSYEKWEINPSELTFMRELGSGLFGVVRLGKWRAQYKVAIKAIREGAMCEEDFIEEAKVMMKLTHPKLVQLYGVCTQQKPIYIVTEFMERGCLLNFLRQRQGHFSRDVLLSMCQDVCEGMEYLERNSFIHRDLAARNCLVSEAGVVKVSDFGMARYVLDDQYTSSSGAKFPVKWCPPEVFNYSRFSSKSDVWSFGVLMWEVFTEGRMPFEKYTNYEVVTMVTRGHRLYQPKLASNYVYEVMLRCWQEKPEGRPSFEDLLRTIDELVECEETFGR
Nature of the assay: Inhibition of a panel of kinases, in vitro HotSpot kinase assay: TEC. The note with it: D-compounds panel data; 1 μM ATP. Here is the method:
as §1

In the next assay the target is SRC (Homo sapiens, UniProt P12931). Nature of the assay: Inhibition of a panel of kinases, in vitro HotSpot kinase assay: SRC. Particulars: D-compounds panel data; 1 μM ATP. Here is the method: as §1
Chain of SRC (P12931 whole entry): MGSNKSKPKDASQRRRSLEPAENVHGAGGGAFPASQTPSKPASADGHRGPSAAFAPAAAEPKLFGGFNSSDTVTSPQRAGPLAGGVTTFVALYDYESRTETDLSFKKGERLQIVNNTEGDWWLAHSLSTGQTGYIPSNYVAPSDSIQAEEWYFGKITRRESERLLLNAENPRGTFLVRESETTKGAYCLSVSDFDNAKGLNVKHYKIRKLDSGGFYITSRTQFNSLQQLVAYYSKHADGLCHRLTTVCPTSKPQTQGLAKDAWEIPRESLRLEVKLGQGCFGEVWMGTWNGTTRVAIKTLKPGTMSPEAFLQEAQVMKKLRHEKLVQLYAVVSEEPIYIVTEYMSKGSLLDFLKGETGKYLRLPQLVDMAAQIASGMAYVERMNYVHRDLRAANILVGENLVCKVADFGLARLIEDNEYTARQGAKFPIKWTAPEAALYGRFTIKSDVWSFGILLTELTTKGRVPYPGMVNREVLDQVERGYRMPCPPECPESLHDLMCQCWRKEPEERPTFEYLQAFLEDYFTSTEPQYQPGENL
The next assay concerns the target T2, JAK3 (Homo sapiens, UniProt P52333).
T2 sequence (P52333 1-1124): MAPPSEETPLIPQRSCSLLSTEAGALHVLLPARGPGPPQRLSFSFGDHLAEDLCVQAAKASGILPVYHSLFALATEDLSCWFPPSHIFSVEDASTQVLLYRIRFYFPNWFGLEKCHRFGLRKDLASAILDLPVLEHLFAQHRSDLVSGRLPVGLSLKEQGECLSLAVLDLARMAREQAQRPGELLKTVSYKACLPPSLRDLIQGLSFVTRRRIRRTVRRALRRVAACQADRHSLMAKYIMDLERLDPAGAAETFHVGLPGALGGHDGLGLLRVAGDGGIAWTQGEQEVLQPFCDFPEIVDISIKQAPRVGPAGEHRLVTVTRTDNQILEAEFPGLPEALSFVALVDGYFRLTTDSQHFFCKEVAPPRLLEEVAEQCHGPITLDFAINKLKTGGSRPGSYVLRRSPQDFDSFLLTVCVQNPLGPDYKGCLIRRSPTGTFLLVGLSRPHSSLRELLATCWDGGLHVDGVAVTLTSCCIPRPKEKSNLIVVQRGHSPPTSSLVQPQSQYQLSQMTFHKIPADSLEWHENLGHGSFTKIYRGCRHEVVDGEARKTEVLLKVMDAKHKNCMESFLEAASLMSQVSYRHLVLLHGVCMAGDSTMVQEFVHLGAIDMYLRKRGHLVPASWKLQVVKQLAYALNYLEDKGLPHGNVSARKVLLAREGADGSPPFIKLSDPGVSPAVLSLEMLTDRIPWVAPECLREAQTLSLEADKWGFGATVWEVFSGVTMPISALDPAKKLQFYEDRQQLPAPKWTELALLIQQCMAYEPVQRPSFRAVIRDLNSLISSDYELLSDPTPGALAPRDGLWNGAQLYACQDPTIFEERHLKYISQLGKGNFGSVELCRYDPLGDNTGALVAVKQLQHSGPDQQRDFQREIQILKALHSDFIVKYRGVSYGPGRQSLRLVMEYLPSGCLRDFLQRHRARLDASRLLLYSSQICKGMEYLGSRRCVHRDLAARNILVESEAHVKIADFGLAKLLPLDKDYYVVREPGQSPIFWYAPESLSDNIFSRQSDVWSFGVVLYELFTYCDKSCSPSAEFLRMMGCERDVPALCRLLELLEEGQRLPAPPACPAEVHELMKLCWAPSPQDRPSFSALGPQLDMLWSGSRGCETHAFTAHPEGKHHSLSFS
Nature of the assay: Inhibition of a panel of kinases, in vitro HotSpot kinase assay: JAK3. Particulars: D-compounds panel data; 1 μM ATP; read-out: IC50 JAK3.

Another assay addresses T3, ITK (Homo sapiens, UniProt Q08881).
T3 sequence (Q08881 1-620): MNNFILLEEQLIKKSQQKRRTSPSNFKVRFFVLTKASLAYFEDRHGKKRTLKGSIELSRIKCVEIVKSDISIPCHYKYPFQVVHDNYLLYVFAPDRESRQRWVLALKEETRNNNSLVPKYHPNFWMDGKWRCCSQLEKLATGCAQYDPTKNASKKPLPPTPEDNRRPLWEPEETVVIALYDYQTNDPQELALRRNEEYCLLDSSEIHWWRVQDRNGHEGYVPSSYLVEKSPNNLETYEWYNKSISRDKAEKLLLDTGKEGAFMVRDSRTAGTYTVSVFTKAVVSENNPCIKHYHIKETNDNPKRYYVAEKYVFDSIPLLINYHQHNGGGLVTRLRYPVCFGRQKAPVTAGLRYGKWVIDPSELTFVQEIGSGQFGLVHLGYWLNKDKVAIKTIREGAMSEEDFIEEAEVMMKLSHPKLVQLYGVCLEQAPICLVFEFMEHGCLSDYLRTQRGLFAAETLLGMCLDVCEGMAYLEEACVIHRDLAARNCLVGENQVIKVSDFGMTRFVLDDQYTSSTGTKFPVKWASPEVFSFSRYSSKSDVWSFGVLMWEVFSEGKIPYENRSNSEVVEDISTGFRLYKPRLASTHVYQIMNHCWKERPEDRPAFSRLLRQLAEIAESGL
Nature of the assay: Inhibition of a panel of kinases, in vitro HotSpot kinase assay: ITK. Particulars: D-compounds panel data; 1 μM ATP. Here is the method: as §1

Chain of EGFR (P00533 25-1210): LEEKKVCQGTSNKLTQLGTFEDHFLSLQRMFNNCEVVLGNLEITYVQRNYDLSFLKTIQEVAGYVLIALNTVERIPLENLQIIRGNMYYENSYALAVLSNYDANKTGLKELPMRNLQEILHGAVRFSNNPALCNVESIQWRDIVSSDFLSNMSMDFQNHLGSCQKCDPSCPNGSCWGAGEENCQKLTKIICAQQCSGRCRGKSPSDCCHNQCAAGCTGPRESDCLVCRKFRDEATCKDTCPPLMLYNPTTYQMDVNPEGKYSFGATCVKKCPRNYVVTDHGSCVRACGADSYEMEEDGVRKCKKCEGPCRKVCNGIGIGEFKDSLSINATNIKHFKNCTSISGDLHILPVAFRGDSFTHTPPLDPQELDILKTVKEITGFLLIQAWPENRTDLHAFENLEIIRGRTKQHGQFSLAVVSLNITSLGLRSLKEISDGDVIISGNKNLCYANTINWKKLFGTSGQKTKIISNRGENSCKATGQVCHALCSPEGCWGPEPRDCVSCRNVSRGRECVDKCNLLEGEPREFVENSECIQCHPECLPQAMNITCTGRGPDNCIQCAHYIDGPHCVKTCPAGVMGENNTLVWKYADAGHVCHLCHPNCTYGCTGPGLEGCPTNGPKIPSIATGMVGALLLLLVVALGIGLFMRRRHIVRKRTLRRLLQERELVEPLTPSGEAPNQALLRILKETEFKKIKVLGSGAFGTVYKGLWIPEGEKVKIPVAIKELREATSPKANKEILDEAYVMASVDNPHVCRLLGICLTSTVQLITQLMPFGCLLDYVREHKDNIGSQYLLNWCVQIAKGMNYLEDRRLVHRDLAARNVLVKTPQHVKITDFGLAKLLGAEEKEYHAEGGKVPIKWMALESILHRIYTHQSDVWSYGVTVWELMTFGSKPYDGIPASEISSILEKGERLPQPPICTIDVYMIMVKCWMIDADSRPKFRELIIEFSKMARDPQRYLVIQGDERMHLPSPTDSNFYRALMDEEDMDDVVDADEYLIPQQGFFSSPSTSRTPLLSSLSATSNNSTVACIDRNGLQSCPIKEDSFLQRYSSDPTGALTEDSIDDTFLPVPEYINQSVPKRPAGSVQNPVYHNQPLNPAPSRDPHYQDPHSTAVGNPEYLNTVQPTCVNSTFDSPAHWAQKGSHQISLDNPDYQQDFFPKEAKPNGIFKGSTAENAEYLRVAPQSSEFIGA

For the compound `C[C@@H]1[C@H](NC(=O)c2ccc3scnc3c2)CCCN1c1cnc(C(N)=O)c(Nc2ccc(N3CCN(C)CC3)cc2)n1` [Example D-226, N-[(2R,3R)-1-(5-carbamoyl-6-{[4-(4-methylpiperazin-1-yl)phenyl]amino}pyrazin-2-yl)-2-methylpiperidin-3-yl]-1,3-benzothiazole-5-carboxamide], the IC50 was 100 to 1000 nM at EGFR; 10 to 100 nM at LCK; no more than 10 nM against TEC; no more than 10 nM against SRC; 100 to 1000 nM on JAK3; 10 to 100 nM against ITK.
As for `CC(C)c1ccc(C(=O)N[C@@H]2CCCN(c3cnc(C(N)=O)c(Nc4cnn(C)c4)n3)[C@@H]2C)cc1` [Example D-197, 3-[(1-methyl-1H-pyrazol-4-yl)amino]-5-[(2R,3R)-2-methyl-3-[4-(propan-2-yl)benzamido]piperidin-1-yl]pyrazine-2-carboxamide], the half-inhibitory concentration (IC50) on EGFR lay in the range of 1000 to 10000 nM; on LCK, 100 to 1000 nM; against TEC it was 10 to 100 nM; against SRC, 100 to 1000 nM; on JAK3, 1000 to 10000 nM; on ITK, 100 to 1000 nM.
Consider `C[C@@H]1[C@H](NC(=O)c2ccc(C3(O)CCCC3)cc2)CCCN1c1cnc(C(N)=O)c(Nc2cnn(C)c2)n1` [Example D-212, 5-[(2R,3R)-3-[4-(1-hydroxycyclopentyl)benzamido]-2-methylpiperidin-1-yl]-3-[(1-methyl-1H-pyrazol-4-yl)amino]pyrazine-2-carboxamide], for which the IC50 against EGFR was 1000 to 10000 nM; on LCK, 100 to 1000 nM; against TEC it was no more than 10 nM; on SRC it was 10 to 100 nM; on JAK3, 100 to 1000 nM; against ITK it was 100 to 1000 nM.
For the compound `Cn1cc(Nc2nc(N3CCC[C@@H](n4ccc5cc(C6CC6)ccc5c4=O)C3)nnc2C(N)=O)cn1` [Example D-206, 3-[(3R)-3-(6-cyclopropyl-1-oxo-1,2-dihydroisoquinolin-2-yl)piperidin-1-yl]-5-[(1-methyl-1H-pyrazol-4-yl)amino]-1,2,4-triazine-6-carboxamide], the IC50 was 1000 to 10000 nM on EGFR; 10 to 100 nM at LCK; no more than 10 nM on TEC; 10 to 100 nM on SRC; 1000 to 10000 nM at JAK3; 100 to 1000 nM at ITK.
Take `C[C@H]1CC[C@@H](NC(=O)c2ccc(C(C)(C)O)cc2)CN1c1cnc(C(N)=O)c(Nc2cnn(C)c2)n1` [Example D-236, 5-[(2S,5R)-5-[4-(2-hydroxypropan-2-yl)benzamido]-2-methylpiperidin-1-yl]-3-[(1-methyl-1H-pyrazol-4-yl)amino]pyrazine-2-carboxamide]: the IC50 was 100 to 1000 nM on EGFR; 10 to 100 nM on LCK; no more than 10 nM against TEC; 10 to 100 nM against SRC; 100 to 1000 nM on JAK3; 100 to 1000 nM on ITK.
For the compound `C[C@@H]1[C@H](NC(=O)c2ccc(C(C)(C)C)cc2)CCCN1c1cnc(C(N)=O)c(Nc2ccc(N3CCN(C)CC3)cc2)n1` [Example D-14, 5-[(2R,3R)-3-(4-tert-butylbenzamido)-2-methylpiperidin-1-yl]-3-{[4-(4-methylpiperazin-1-yl)phenyl]amino}pyrazine-2-carboxamide], the half-inhibitory concentration (IC50) lay in the range of 1000 to 10000 nM against EGFR; 10 to 100 nM at LCK; 10 to 100 nM on TEC; 10 to 100 nM against SRC; 1000 to 10000 nM at JAK3; 100 to 1000 nM at ITK.
For `Cn1cc(Nc2nc(N3C4CCC(NC(=O)c5ccc(C6CC6)cc5)C3CC4)cnc2C(N)=O)cn1` (single isomer, unassigned) [Example D-200, 5-[2-(4-cyclopropylbenzamido)-8-azabicyclo[32.1]octan-8-yl]-3-[(1-methyl-1H-pyrazol-4-yl)amino]pyrazine-2-carboxamide], the 50% inhibitory concentration (IC50) on EGFR is 1000 to 10000 nM; on LCK it was 1000 to 10000 nM; against TEC, 1000 to 10000 nM; against SRC, 1000 to 10000 nM; on JAK3, greater than 10000 nM; against ITK it was greater than 10000 nM.
Turning to `C[C@@H]1[C@H](NC(=O)c2ccc(C3CC3)cn2)CCCN1c1cnc(C(N)=O)c(Nc2ccc(N3CCN(C)CC3)cc2)n1` [Example D-188, 5-[(2R,3R)-3-(5-cyclopropylpyridine-2-amido)-2-methylpiperidin-1-yl]-3-{[4-(4-methylpiperazin-1-yl)phenyl]amino}pyrazine-2-carboxamide], the IC50 against EGFR was in the range of 100 to 1000 nM; on LCK, 100 to 1000 nM; at TEC, 10 to 100 nM; on SRC, 10 to 100 nM; at JAK3 it was 1000 to 10000 nM; on ITK it was 100 to 1000 nM.
As for `Cn1cc(Nc2nc(N3C[C@@H](NC(=O)c4ccc(C5CC5)cc4)CC(F)(F)C3)cnc2C(N)=O)cn1` [Example D-189, 5-[(5S)-5-(4-cyclopropylbenzamido)-3,3-difluoropiperidin-1-yl]-3-[(1-methyl-1H-pyrazol-4-yl)amino]pyrazine-2-carboxamide], the IC50 against EGFR is 1000 to 10000 nM; on LCK, greater than 10000 nM; at TEC, 1000 to 10000 nM; on SRC, greater than 10000 nM; on JAK3, 1000 to 10000 nM; at ITK, greater than 10000 nM.
As to `CN1CCN(c2ccc(Nc3cc(N4CCC[C@@H](n5ccc6cc(C7CC7)ccc6c5=O)C4)cnc3C(N)=O)cc2)CC1` [Example D-178, 5-[(3R)-3-(6-cyclopropyl-1-oxo-1,2-dihydroisoquinolin-2-yl)piperidin-1-yl]-3-{[4-(4-methylpiperazin-1-yl)phenyl]amino}pyridine-2-carboxamide], the IC50 is greater than 10000 nM against EGFR; 1000 to 10000 nM on LCK; 1000 to 10000 nM against TEC; 1000 to 10000 nM on SRC; greater than 10000 nM at JAK3; 1000 to 10000 nM on ITK.
